Assay results reported in US5958946A, “Modulation of hair growth” (priority 1998, dated 1999).

Assays:
[1] = tested on: androgen-stimulated hair growth of flank organs; experiment: Golden Syrian hamster assay (flank organ hair mass); type: in vivo; settings: topical, 10% dose, thirteen applications, vehicle A, B or C per compound; for Left(mg) (hair mass of the compound-treated flank organ): 10 μl once a day
Source text: Male intact Golden Syrian hamsters are considered acceptable models for human beard hair growth and other androgen-stimulated hair growth in that they display oval shaped flank organs, one on each side, each about 8 mm. in major diameter, which grow thick black and coarse hair similar to human beard hair. These organs produce hair in response to androgens in the hamster. To evaluate the effectiveness of a composition in reducing androgen-stimulated hair growth, the flank organs of each of a group of hamsters are shaved. To one organ of each animal 10 μl. of composition vehicle alone once a day is applied, while to the other organ of each animal an equal amount of the composition (including the relevant compound or compounds). After thirteen applications (one application per day for five days a week), the flank organs are shaved and the amount of recovered hair (hair mass) from each is weighed. Percent-reduction of hair growth is calculated by subtracting the hair mass (mg) value of the test compound treated side from the hair mass value of the vehicle treated side; the delta value obtained is then divided by the hair mass value of the vehicle treated side, and the resultant number is multiplied by 100.
The above-described assay will be referred to herein as the "Golden Syrian hamster" assay. Preferred compositions provide a reduction in hair growth of at least about 30%, more preferably at least about 50%, and most preferably at least about 60% when tested in the Golden Syrian hamster assay.
A number of compositions containing compounds that induce or activate UGTs for which testosterone is a substrate were tested in the Golden Syrian hamster assay; the results are provided in Table I: […]

[2] = tested on: glucuronidation of testosterone (UGTs); experiment: Induction of testosterone glucuronide formation in flank organ homogenates; type: biochemical, Golden Syrian hamster; settings: flank organ protein, [14C]-testosterone 125 μM, UDP-glucuronic acid 5 mM, 37° C., 60 minutes
Description: An assay was performed to evaluate whether some of the compounds tested in the Golden Syrian Hamster assay caused an induction of testosterone glucuronide formation.
Flank organ homogenates were prepared by adding 4 flank organs into 2 mL of a buffer containing 25 mM Tris/50 mM sucrose, pH 7.4 and homogenized with a Polytron (Brinkman Instruments) while keeping the mixture on ice. The glucuronidation of testosterone was measured by incubating the 20 μl of the flank organ protein (1 mg/ml) with [^14 C]-testosterone testosterone 125 μM and UDP-glucuronic acid (5 mM) in the presence of buffer containing 0.5M Tris, pH 7.5 and 0.1M MgCl2. The total reaction mixture volume was 100 μl. Assay mixtures were incubated at 37° C. for 60 minutes, and reactions were stopped with the addition of 3.5 ml methylene chloride. An aqueous carrier (250 μl water) was added to each reaction mixture which was then shaken and centrifuged. The unmetabolized [^14 C]-testosterone remained in the organic phase whereas the testosterone glucuronide partitioned into the aqueous phase, and was quantitated by scintillation spectrometry.

[3] = tested on: flank organs; experiment: Flank organ diameter by caliper after topical treatment; type: in vivo, Golden Syrian hamster; settings: for effect on flank organ diameter (in words): topical application; for % Decrease (flank organ diameter) / Decrease (mm) (flank organ diameter, treated vs vehicle) / Treated FO (mm) (flank organ diameter): topical treatment as in the hair mass assay
Description: It was believed that the diversion of testosterone away from its biologically active species to a glucuronide or sulfonate conjugate would have effects on the flank organs of the Golden Syrian hamster since testosterone is known to regulate the existence of these unique organs. The diameter of flank organs were assessed using a caliper following topical treatment of the hamsters with ethoxyquin or 5,7-dihydroxy-4'-methoxyflavone as described in the hair mass assay section.

Row | Structure (SMILES) | Left(mg) (hair mass of the compound-treated flank organ) [1] | % Inhibition (percent reduction of hair growth vs vehicle-treated side) [1] [%] | % Induction (testosterone glucuronide formation) [2] [%] | effect on flank organ diameter (in words) [3] | % Decrease (flank organ diameter) [3] [%] | Decrease (mm) (flank organ diameter, treated vs vehicle) [3] | Treated FO (mm) (flank organ diameter) [3]
1 | COc1ccc(-c2cc(=O)c3c(O)cc(O)cc3o2)cc1 [5,7-dihydroxy-4'-methoxyflavone] | 1.00 ± .22 mg | 62 ± 9 | 120 | decrease in flank organ diameter | 12 ± 5 | 1.04 ± .46 mm | 8.04 ± .29 mm
2 | COc1ccc(O)c(C(C)(C)C)c1 [butylhydroxyanisole] | 0.92 ± .24 mg | 61 ± 9 | 178 | – | – | – | –
3 | Cc1cc(C(C)(C)C)c(O)c(C(C)(C)C)c1 [butylhydroxytoluene] | 1.74 ± .38 mg | 22 ± 18 | – | – | – | – | –
4 | CCOc1ccc2c(c1)C(C)=CC(C)(C)N2 [ethoxyquin] | 0.55 ± .16 mg | 75 ± 7 | 214 | decrease in flank organ diameter | 19 ± 4 | 1.65 ± .37 mm | 7.18 ± .26 mm
5 | O=C1CC(c2ccccc2)Oc2ccccc21 (centres unmarked) [flavanone] | 1.91 ± .22 mg | 17 ± 10 | – | – | – | – | –
6 | O=C1C[C@@H](c2ccc(O)cc2)Oc2cc(O)cc(O)c21 [naringenin] | 1.42 ± .18 mg | 40 ± 8 | – | – | – | – | –
7 | CCC1(c2ccccc2)C(=O)NC(=O)NC1=O [phenobarbital, reference compound] | 0.89 ± .16 mg | 51 ± 11 | 113 | – | – | – | –
